According to patent US20180185374A1, “INHIBITORS OF MTOR KINASE AS ANTI-VIRAL AGENTS” (THE TRUSTEES OF PRINCETON UNIVERSITY, priority 2009, published 2018):
pIC50: −log10 of the molar value.

System: HCMV
Assay: HCMV multistep growth in serum-starved human fibroblasts, cell-free virus by TCID50
Format: cell-based, human cytomegalovirus

`CCC(=O)N1CCN(c2ccc(-n3c(=O)ccc4cnc5ccc(-c6cnc7ccccc7c6)cc5c43)cc2C(F)(F)F)CC1` [Torin1] was tested, and the “reduction of HCMV yield” value (day 10, 0.05 PFU/cell, rapamycin 20 nM, Torin1 250 nM) was “about 160 fold” and the pIC50 (read-out: 50% inhibitory concentration (IC50) for production of HCMV progeny, 8 days post infection) was ~7.22.
